Test results as given in BigSolDB 2.1.

Clc1ccccc1C(c1ccccc1)(c1ccccc1)n1ccnc1
solubility (mole fraction)
Details	293.15 K	298.15 K	303.15 K	308.15 K	313.15 K
in n-hexane	0.000222	0.000267	0.000319	0.000383	0.000455
in n-octanol	0.0204	0.0249	0.0304	0.0372	0.045
